Assay results: patent US8916526B2, “Flavanone derivative” (National University Corporation Okayama University, priority 2009, dated 2014)
Converted amounts (≈) assume the structure as drawn.

Key:
MRSA N315 = assay: In vitro infectivity assay (MIC), broth dilution, Exp. Ex. 1-1; assay type: cell-based, Staphylococcus aureus
Method: (§1) The antibacterial activities were measured based on broth dilution techniques of international standards (Clinical Laboratory Standards Institute: CLSI). The activities were shown by minimum inhibitory concentrations (MICs) determined by inoculating the above-mentioned strains at a concentration of about 10^5 […] into Mueller-Hinton broth (manufactured by Difco) containing 0.85% NaCl in 96-well microplates and incubating the plates at 35° C. for 24 hours. Measurement was carried out three times.
(§2) The antibacterial activities of the compounds of the present invention against various strains such as methicillin-resistant Staphylococcus aureus (MRSA), vancomycin intermediate-resistant Staphylococcus aureus (VISA), methicillin-sensitive Staphylococcus aureus (MSSA), and vancomycin-resistant enterococci (VRE) were examined. Of the bacteria used in MIC measurement in this test example, clinical bacteria of MRSA (OM481 strain and OM584 strain) were supplied from Okayama University Hospital (Japan). An MRSA strain N315, a vancomycin intermediate-resistant Staphylococcus aureus (VISA) strain Mu50, and a methicillin-sensitive Staphylococcus aureus (MSSA) strain FDA 209P were used as controls. Vancomycin-resistant enterococcus (VRE) strains NCTC 12201 and FN-1 were supplied from the National Institute of Infectious Disease (Japan).

MRSA OM481 = assay: as above; assay type: cell-based, Staphylococcus aureus
Method: as §1, §2

MRSA OM58 = assay: as above; assay type: cell-based, Staphylococcus aureus
Method: as §1, §2

MSSA FDA 209P = assay: as above; assay type: cell-based, Staphylococcus aureus
Method: as §1, §2

VISA Mu50 = assay: as above; assay type: cell-based, Staphylococcus aureus
Method: as §1, §2

VRE FN-1 = assay: as above; assay type: cell-based, enterococci
Method: as §1, §2

VRE NCTC12201 = assay: as above; assay type: cell-based, enterococci
Method: as §1, §2

[1] = target: T1, DNA gyrase of Escherichia coli (Escherichia coli, UniProt P0AES4+P0AES6); assay: DNA gyrase inhibition (supercoiling assay kit), Exp. Ex. 1-2; assay type: biochemical
T1 construct: purchased John Innes Enterprises #K0001
Method: As a kit for measurement of DNA gyrase of Escherichia coli, a product purchased from John Innes Enterprises (Gyrase Supercoiling assay kit #K0001) was used. Relaxed DNA was modified with gyrase into supercoiled DNA, and reaction products were separated by electrophoresis depending on the sizes of the molecular weights to examine anti-gyrase effects (IC50). One unit (1 U) of DNA gyrase and […] of relaxed pBR322 DNA were added to […] of the reaction solution, and the mixture was allowed to react at 37° C. for 30 minutes in the presence of 35 mM Tris-HCl (pH 7.5), 24 mM KCl, 4 mM MgCl2, 2 mM DTT, 1.8 mM spermidine, 1 mM ATP, 6.5% (w/v) glycerol, and 0.1 mg/ml BSA. The reactions were stopped using […] of a reaction stop solution (40% sucrose, 100 mM Tris-HCl (pH 7.5), 1 mM EDTA, 0.5 mg/ml bromophenol blue).

[2] = system: various strains such as MRSA, VISA, MSSA and VRE; assay: In vitro infectivity assay (MIC), Exp. Ex. 1-1, strains taken together; assay type: cell-based, Staphylococcus aureus, enterococci; details: summary of Table 1
Method: as §1, §2

[3] = mouse, in vivo, 10 mg/kg
Method: (§4) An acute toxicity test of the compound of the present invention was carried out using ICR mice as experimental animals.

[4] = Acute toxicity evaluation experiment; details: ICR mice, observed over 7 days, four mice
Method: as §4

[5] = system: Vancomycin intermediate-resistant Staphylococcus aureus Mu50; assay: In vitro infectivity assay (MIC), Exp. Ex. 2-1; assay type: cell-based; details: Staphylococcus aureus, VISA, 24 h, read-out: MIC VISA Mu50
Summary of the method: (§3)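 CLSI broth microdilution in Mueller-Hinton broth with 0.85% NaCl, inoculum about 10^5 CUF/[…]. MIC read after 24 h at 35° C; each determination run three times.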

[6] = system: Vancomycin-resistant enterococci FN-1; assay: In vitro infectivity assay (MIC), Exp. Ex. 2-1; assay type: cell-based; details: Enterococcus, VRE, 24 h, read-out: MIC VRE FN-1
Summary of the method: as §3

[7] = system: Vancomycin-resistant enterococci NCTC 12201; assay: In vitro infectivity assay (MIC), Exp. Ex. 2-1; assay type: cell-based; details: Enterococcus, NCTC 12201 / VRE, 24 h, read-out: MIC VRE NCTC 12201
Summary of the method: as §3

[8] = system: Methicillin sensitive S. aureus 209P; assay: In vitro infectivity assay (MIC), Exp. Ex. 2-1; assay type: cell-based, Staphylococcus aureus; details: Staphylococcus aureus, 209P / MSSA, 24 h, read-out: MIC MSSA 209P
Summary of the method: as §3

[9] = system: Methicillin-resistant S. aureus N315; assay: In vitro infectivity assay (MIC), Exp. Ex. 2-1; assay type: cell-based, Staphylococcus aureus; details: Staphylococcus aureus, MRSA, 24 h, read-out: MIC MRSA N315
Summary of the method: as §3

[10] = system: Methicillin-resistant S. aureus OM481; assay: In vitro infectivity assay (MIC), Exp. Ex. 2-1; assay type: cell-based, Staphylococcus aureus; details: Staphylococcus aureus, MRSA, 24 h, read-out: MIC MRSA OM481
Summary of the method: as §3

[11] = system: Methicillin-resistant S. aureus OM584; assay: In vitro infectivity assay (MIC), Exp. Ex. 2-1; assay type: cell-based, Staphylococcus aureus; details: Staphylococcus aureus, MRSA, 24 h, read-out: MIC MRSA OM584
Summary of the method: as §3

[12] = system: Streptococcus pneumoniae R6; assay: In vitro infectivity assay (MIC), Exp. Ex. 2-1; assay type: cell-based; details: Streptococcus pneumoniae, R6, 24 h, read-out: MIC S. Pneumoniae R6
[13] = system: Methicillin-resistant S. aureus COL; assay: In vitro infectivity assay (MIC), Exp. Ex. 2-1; assay type: cell-based; details: Staphylococcus aureus, MRSA, 24 h, read-out: MIC MRSA COL

T1 sequence (P0AES4 whole entry, one chain of several): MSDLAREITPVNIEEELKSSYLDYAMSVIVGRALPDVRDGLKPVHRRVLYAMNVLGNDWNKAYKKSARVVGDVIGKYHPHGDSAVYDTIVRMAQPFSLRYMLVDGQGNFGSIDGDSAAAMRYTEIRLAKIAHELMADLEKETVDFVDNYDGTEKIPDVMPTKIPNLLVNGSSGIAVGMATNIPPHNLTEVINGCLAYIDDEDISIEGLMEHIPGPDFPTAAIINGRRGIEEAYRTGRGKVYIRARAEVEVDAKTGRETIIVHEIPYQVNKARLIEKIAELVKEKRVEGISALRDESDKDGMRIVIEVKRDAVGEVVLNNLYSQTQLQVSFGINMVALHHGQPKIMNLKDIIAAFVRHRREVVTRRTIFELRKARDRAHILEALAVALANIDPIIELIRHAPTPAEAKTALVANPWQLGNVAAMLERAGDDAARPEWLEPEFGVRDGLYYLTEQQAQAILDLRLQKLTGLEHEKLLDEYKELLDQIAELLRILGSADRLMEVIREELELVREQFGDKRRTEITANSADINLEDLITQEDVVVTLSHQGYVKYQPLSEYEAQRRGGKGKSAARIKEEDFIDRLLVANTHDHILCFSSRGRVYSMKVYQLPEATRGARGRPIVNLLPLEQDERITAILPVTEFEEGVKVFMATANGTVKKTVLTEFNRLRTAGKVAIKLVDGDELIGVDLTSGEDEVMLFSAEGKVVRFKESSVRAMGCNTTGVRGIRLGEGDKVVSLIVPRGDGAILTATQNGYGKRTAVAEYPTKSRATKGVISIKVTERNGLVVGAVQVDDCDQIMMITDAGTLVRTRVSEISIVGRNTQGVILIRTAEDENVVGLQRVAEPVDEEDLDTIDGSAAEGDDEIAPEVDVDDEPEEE

## O=C(CCc1ccc(F)cc1)O[C@H]1[C@H](Oc2c(-c3ccc(O)c(O)c3)oc3cc(O)cc(O)c3c2=O)O[C@H](CO)[C@@H](O)[C@@H]1OC(=O)CCc1ccc(F)cc1 [Compound 15d, 2-(3′,4′-Dihydroxy)-5,7-dihydroxy-3-β-D-(2″,3″-di-p-flurophenylethylcarboxy)glucosyl-4H-chromen-4-one]
MRSA N315; MRSA N315, Mueller-Hinton broth, 35° C., 24 hours
  MIC MRSA N315: 0.25 µg/mL (≈ 0.327 µM)
MRSA OM481; MRSA OM481, Mueller-Hinton broth, 35° C., 24 hours
  MIC MRSA OM481: 2 µg/mL (≈ 2.62 µM)
MRSA OM58; MRSA OM58, Mueller-Hinton broth, 35° C., 24 hours
  MIC MRSA OM58: 2 µg/mL (≈ 2.62 µM)
MSSA FDA 209P; MSSA FDA 209P, Mueller-Hinton broth, 35° C., 24 hours
  MIC MSS 209P: 0.25 µg/mL (≈ 0.327 µM)
VISA Mu50; VISA Mu50, Mueller-Hinton broth, 35° C., 24 hours
  MIC VISA Mu50: 1 µg/mL (≈ 1.31 µM)
VRE FN-1; VRE FN-1, Mueller-Hinton broth, 35° C., 24 hours
  MIC VRE FN-1: 1 µg/mL (≈ 1.31 µM)
VRE NCTC12201; VRE NCTC12201, Mueller-Hinton broth, 35° C., 24 hours
  MIC VRE NCTC 12201: 1 µg/mL (≈ 1.31 µM)
[1]; E. coli DNA gyrase supercoiling, relaxed pBR322, 37° C., 30 minutes
  Gyrase inhibitory activity IC50: 0.22 µg/mL
[1]; summary of Table 2
  Gyrase inhibitory effect compared with norfloxacin (in words): inhibitory effect equal to or greater than that of an existing gyrase inhibitor such as norfloxacin
[2]
  Antibacterial activities against the vancomycin resistant bacteria such as VRE and VISA (in words): strong antibacterial activities
[3]
  Changes in the body weights: the body weights were slightly reduced from the day after administration, but the body weights of all the four mice were recovered from about day 5 after administration
[4]; 10 mg/kg for 4 consecutive days
  Mortality: All the mice were not dead until day 7
[4]; 100 mg/kg for 4 consecutive days
  Mortality: all the mice in the group were dead on days 5 to 7 after administration

## CN[C@H](CC(C)C)C(=O)N[C@H]1C(=O)N[C@@H](CC(N)=O)C(=O)N[C@H]2C(=O)N[C@H]3C(=O)N[C@H](C(=O)N[C@H](C(=O)O)c4cc(O)cc(O)c4-c4cc3ccc4O)[C@H](O)c3ccc(c(Cl)c3)Oc3cc2cc(c3O[C@@H]2O[C@H](CO)[C@@H](O)[C@H](O)[C@H]2O[C@H]2C[C@](C)(N)[C@H](O)[C@H](C)O2)Oc2ccc(cc2Cl)[C@H]1O [Vancomycin, vancomycin, reference compound]
MRSA N315; Staphylococcus aureus, MRSA, 24 h, read-out: MIC MRSA N315
  MIC: 0.25 µg/mL (≈ 0.173 µM)
MRSA OM481; Staphylococcus aureus, MRSA, 24 h, read-out: MIC MRSA OM481
  MIC: 0.25 µg/mL (≈ 0.173 µM)
MRSA OM58; Staphylococcus aureus, MRSA, 24 h, read-out: MIC MRSA OM58
  MIC: 0.25 µg/mL (≈ 0.173 µM)
MSSA FDA 209P; Staphylococcus aureus, 24 h, read-out: MIC MSS 209P
  MIC: 0.25 µg/mL (≈ 0.173 µM)
VISA Mu50; Staphylococcus aureus, VISA, 24 h, read-out: MIC VISA Mu50
  MIC: 8 µg/mL (≈ 5.52 µM)
VRE FN-1; Enterococcus, VRE, 24 h, read-out: MIC VRE FN-1
  MIC: > 128 µg/mL
VRE NCTC12201; Enterococcus, 24 h, read-out: MIC VRE NCTC12201
  MIC: > 128 µg/mL
[5]
  MIC: 8 µg/mL (≈ 5.52 µM)
[6]
  MIC: > 128 µg/mL
[7]
  MIC: > 128 µg/mL
[8]
  MIC: 0.25 µg/mL (≈ 0.173 µM)
[9]
  MIC: 0.25 µg/mL (≈ 0.173 µM)
[10]
  MIC: 0.25 µg/mL (≈ 0.173 µM)
[11]
  MIC: 0.25 µg/mL (≈ 0.173 µM)
[12]
  MIC: 0.25 µg/mL (≈ 0.173 µM)
[13]
  MIC: 0.25 µg/mL (≈ 0.173 µM)
